Assay results from patent US6166065A, “2,3-dioxabicyclo[3.3.1]nonane derivatives and antimalarial pharmaceutical compositions comprising them” (Yeda Research and Development Co., Ltd., priority 1997, dated 2000).
Read-outs that look alike come from different tables or passages of the source. Values belong to the compound of their own block, whether it stands above or below them.

Assays:
[1] = tested on: Plasmodium falciparum (NF54); assay: In vitro antimalarial activity, [3H]hypoxanthine incorporation into chloroquine-sensitive P. falciparum (NF 54); assay type: cell-based
Experimental: the protozoan Plasmodium falciparum is a causative agent of malaria. The antimalarial activity of 2,3-dioxabicyclo[3.3.1]nonanes of type A was determined by measuring the incorporation of [^3 H]hypoxanthine, by the methods of Desjardins^9 and Milhous,^10 into […] Plasmodium falciparum (NF54)^11 in the presence of varying drug concentrations. Dose-response response curves that were fit to the experimental data by means of the Marquardt algorithm^12 were solved for the drug concentration that kills 50% of parasites (IC50), and were analyzed for accuracy of fit (R^2 value, typically ≥0.99). Provisional IC50 values were obtained in a survey of seven 5-fold dilutions (in triplicate) of stock solutions of chromatographically-purified or recrystalized test compound. Assay were later expanded to include ten concentrations (in quadruplicate) of ~1.8-fold dilutions, which flank the provisional IC50.
Tables 1-3 present tabulations of a number of compounds that have been synthesized along with the IC50 (in nM).

[2] = tested on: Plasmodium berghei (N strain); set-up: ED90: unit not given beside the values; ED50: unit not given here; conditions: against P. berghei; cited from earlier work
[3] = cited from earlier work
[4] = tested on: Plasmodium berghei (N strain); assay: In vivo antimalarial activity against chloroquine-sensitive Plasmodium berghei (N strain), four-day test in mice; conditions: sc, P. berghei (N strain), subcutaneous, daily dose, fourday test
Experimental: (§1) Based on the in vitro antimalarial activity of compounds of type A, the in vivo antimalarial activity of two representatives, namely of compounds 23a and 34a, were tested.
(§2) *ED50 and ED90 are given as the daily dose in mg/Kg, repeated
(§3) every 4 days. Substances were administered to mice subcutaneously and
(§4) tested by the fourday test.^14,15

[5] = tested on: Plasmodium yoelii (ssp. NS); assay: In vivo antimalarial activity against chloroquine-resistant Plasmodium yoelii (ssp. NS), four-day test in mice; conditions: sc, P. yoelii (ssp. NS), subcutaneous, daily dose, fourday test
Experimental: as §1, §2, §3, §4

[6] = tested on: mouse neuroblastoma cells; conditions: cited from earlier work
[7] = tested on: Plasmodium falciparum (NF54); conditions: recorded under the same conditions; cited from earlier work
[8] = tested on: Plasmodium yoelii (ssp. NS); set-up: ED90: unit not given beside the values; ED50: unit not given here; conditions: against P. yoelii; cited from earlier work
[9] = rats, high doses; cited from earlier work
[10] = Plasmodium falciparum, NF54, Expansion data (ten concentrations, quadruplicate, ~1.8-fold dilutions)
[11] = Plasmodium falciparum, NF54, Survey data (provisional; seven 5-fold dilutions in triplicate)

Structure (SMILES): C[C@@]1(O)CC[C@@H]2C[C@H]1OO[C@@]2(C)CS(=O)(=O)c1ccccc1 [Compound 21a, (1R,4R,5R,8R)-4,8-dimethyl-4-phenylsulfonylmethyl-2,3-dioxabicyclo [3.3.1]nonan-8-ol]
IC50 [1, 10]: 55 nM

Structure (SMILES): CC(=O)O[C@]1(C)CC[C@@H]2C[C@H]1OO[C@]2(C)C[S+]([O-])c1ccccc1 (stereo partly drawn) [Compound 41b, (1R,4S,5R,8R)-8-acetoxy-4,8-dimethyl-4-phenylsulfinylmethyl-2,3-dioxabicyclo[3.3.1]nonanes]
IC50 [1, 10]: 71 nM

Structure (SMILES): C[C@@H]1C(=O)C[C@H]2C[C@@H]1OO[C@@]2(C)/C=C\c1ccc(C(F)(F)F)cc1C(F)(F)F [arteflene]
ED50 [2]: 2.7 | ED90 [2]: 3.9 | in vitro and in vivo antimalarial screening, clinical trials [3]: gave encouraging results

Structure (SMILES): C[C@H]1CC[C@@H]2C[C@H]1OO[C@@]2(C)CS(=O)(=O)c1ccccc1 [Compound 22a, (1R,4R,5R,8S)-4,8-dimethyl-4-phenylsulfonylmethyl-2,3-dioxabicyclo [3.3.1]nonane]
IC50 [1, 10]: 17 nM

Structure (SMILES): C[C@]1(CS(=O)(=O)c2ccccc2)OO[C@@H]2C[C@H]1CC[C@@]2(C)O [Compound 21b, (1R,4S,5R,8R)-4,8-dimethyl-4-phenylsulfonylmethyl-2,3-dioxabicyclo[3.3.1]nonan-8-ol]
IC50 [1, 10]: 89 nM

Structure (SMILES): CC(=O)CC(=O)O[C@]1(C)CC[C@@H]2C[C@H]1OO[C@@]2(C)CS(=O)(=O)c1ccccc1 [Compound 24a, (1R,4R,5R,8R)-8-acetylacetoxy-4,8-dimethyl-4-phenylsulfonylmethyl-2,3-dioxabicyclo[3.3.1]nonane]
IC50 [1, 10]: 46 nM

Structure (SMILES): CC(=O)O[C@]1(C)CC[C@@H]2C[C@H]1OO[C@]2(C)CS(=O)(=O)c1ccccc1 [Compound 23b, (1R,4S,5R,8R)-8-acetoxy-4,8-dimethyl-4-phenylsulfonylmethyl-2,3-dioxabicyclo[3.3.1]nonane]
IC50 [1, 10]: 17 nM

Structure (SMILES): C[C@@H]1CC[C@H]2[C@@H](C)C(O)O[C@@H]3O[C@@]4(C)CC[C@@H]1[C@]32OO4 (stereo partly shown) [dihydroarte-mesinin]
neurotoxicity [6]: neurotoxicity has been seen

Structure (SMILES): C[C@H]1CC[C@@H]2C[C@H]1OO[C@]2(C)CS(=O)(=O)c1ccccc1 [Compound 22b, (1R,4S,5R,8S)-4,8-dimethyl-4-phenylsulfonylmethyl-2,3-dioxabicyclo[3.3.1]nonane]
IC50 [1, 10]: 24 nM

Structure (SMILES): C[C@]1(CSc2ccccc2)OOC2C[C@@H]1C[C@H](OC(=O)c1ccccc1)[C@]2(C)O (stereo in doubt) [Compound 4a, (1R,4S,5S,7S,8S)-7-benzoyloxy-4,8-dimethyl-4-phenylthiomethyl-2,3-dioxabicyclo[3.3.1]nonan-8-ol]
IC50 [1, 11]: 110 nM

Structure (SMILES): CC(=O)O[C@]1(C)CC[C@@H]2C[C@H]1OO[C@@]2(C)C[S+]([O-])c1ccccc1 (stereo partly drawn) [Compound 41a, (1R,4R,5R,8R)-8-acetoxy-4,8-dimethyl-4-phenylsulfinylmethyl-2,3-dioxabicyclo[3.3.1]nonanes]
IC50 ([1]; Expansion data (ten concentrations, quadruplicate, ~1.8-fold dilutions)): 40 nM | IC50 ([1]; Expansion data (ten concentrations, quadruplicate, ~1.8-fold dilutions), listed as 41a'): 14 nM

Structure (SMILES): C[C@@H]1CC[C@H]2[C@@H](C)C(=O)O[C@@H]3O[C@@]4(C)CC[C@@H]1[C@]32OO4 [artemisinin]
IC50 [7]: 11 nM | ED50 [2]: 0.95 | ED90 [2]: 2.5 | ED50 [8]: 5.8 | ED90 [8]: 10.0

Structure (SMILES): CC(=O)O[C@]1(C)CC[C@@H]2C[C@H]1OO[C@@]2(C)CS(=O)(=O)c1ccccc1 [Compound 23a, (1R,4R,5R,8R)-8-acetoxy-4,8-dimethyl-4-phenylsulfonylmethyl-2,3-dioxabicyclo [3.3.1]nonane]
IC50 [1, 10]: 17 nM | ED50 [4]: 3.7 mg/kg | ED90 [4]: 7.3 mg/kg/day | ED50 [5]: 12.5 mg/kg | ED90 [5]: 28 mg/kg/day

Structure (SMILES): CO[C@H]1O[C@@H]2O[C@@]3(C)CC[C@H]4[C@H](C)CC[C@@H]([C@H]1C)[C@@]24OO3 [artemether]
neurotoxicity [9]: neurotoxicity has been seen

Structure (SMILES): CC(=O)CC(=O)O[C@]1(C)CC[C@@H]2C[C@H]1OO[C@]2(C)CS(=O)(=O)c1ccccc1 [Compound 24b, (1R,4S,5R,8R)-8-acetylacetoxy-4,8-dimethyl-4-phenylsulfonylmethyl-2,3-dioxabicyclo [3.3.1]nonane]
IC50 [1, 10]: 73 nM

Continued, in another order:

IC50 [1, 10]: 92 nM
Structure (SMILES): C[C@@]12O[C@@H]1C[C@@H]1C[C@H]2OO[C@@]1(C)CS(=O)(=O)c1ccccc1 [Compound 39a, (1R,4R,5R,7R,8R)-7,8-epoxy-4,8-dimethyl-4-phenylsulfonylmethyl-2,3-dioxabicyclo[3.3.1]nonane]

IC50 [1, 10]: 21 nM
Structure (SMILES): C[C@@]1(OC(=O)C(=O)N(Cc2ccccc2)Cc2ccccc2)CC[C@@H]2C[C@H]1OO[C@@]2(C)CS(=O)(=O)c1ccccc1 [Compound 26a, (1R,4R,5R,8R)-8-dibenzylaminooxalyloxy-4,8-dimethyl-4-phenylsulfonylmethyl-2,3-dioxabicyclo[3.3.1]nonane]

IC50 [1, 10]: 81 nM
Structure (SMILES): C[C@]1(CS(=O)(=O)c2ccccc2)OO[C@@H]2C[C@H]1CC[C@@]2(C)OC(=O)C(=O)N(Cc1ccccc1)Cc1ccccc1 [Compound 26b, (1R,4S,5R,8R)-dibenzylaminooxalyloxy-4,8-dimethyl-4-phenylsulfonylmethyl-2,3-dioxabicyclo[3.3.1]nonane]

IC50 [1, 11]: 300 nM
Structure (SMILES): CCCCS(=O)(=O)C[C@@]1(C)OO[C@H]2C[C@@H]1C[C@H](OC(=O)c1ccccc1)[C@]2(C)O [Compound 30a, (1S,4S,5S,7S,8S)-7-benzoyloxy-4-n-butylsulfonylmethyl-4,8-dimethyl-2,3-dioxabicyclo[3.3.1]nonan-8-ol]

IC50 [1, 10]: 170 nM
Structure (SMILES): CCOC(=O)C(=O)O[C@]1(C)CC[C@@H]2C[C@H]1OO[C@@]2(C)CS(=O)(=O)c1ccccc1 [Compound 25a, (1R,4R,5R,8R)-8-ethoxyoxyalyloxy-4,8-dimethyl-4-phenylsulfonylmethyl-2,3-dioxabicyclo [3.3.1]nonane]

IC50 [1, 11]: 250 nM
Structure (SMILES): C[C@@]1(O)[C@@H]2C[C@H](C[C@@H]1OC(=O)c1ccccc1)[C@@](C)(CS(=O)(=O)c1ccccc1)OO2 [Compound 29a, (1S,4S,5S,7S,8S)-7-benzoyloxy-4,8-dimethyl-4-phenylsulfonylmethyl-2,3-dioxabicyclo[3.3.1]nonan-8-ol]

IC50 [1, 10]: 32 nM
Structure (SMILES): C[C@@]1(OC/C=C/c2ccccc2)CC[C@@H]2C[C@H]1OO[C@@]2(C)CS(=O)(=O)c1ccccc1 [Compound 36a, (1R,4R,5R,8R)-8-(trans-cinnamyloxy)-4,8-dimethyl-4-phenylsulfonylmethyl-2,3-dioxabicyclo[3.3.1]nonane]

IC50 [1, 10]: 35 nM
Structure (SMILES): CC(C)=CCO[C@]1(C)CC[C@@H]2C[C@H]1OO[C@@]2(C)CS(=O)(=O)c1ccccc1 [Compound 35a, (1R,4R,5R,8R)-4,8-dimethyl-8-(γ,γ-dimethylallyloxy)-4-phenylsulfonylmethyl-2,3dioxabicyclo[3.3.1]nonane]

IC50 [1, 10]: 150 nM
Structure (SMILES): C[C@]1(CS(=O)(=O)c2ccccc2)OO[C@@H]2C[C@H]1CC[C@@]2(C)OC(=O)Oc1ccccc1 [Compound 27b, (1R,4S, 5R,8R)-4,8-dimethyl-8-phenoxycarbonyloxy-4-phenylsulfonylmethyl-2,3-dioxabicyclo[3.3.1]nonane]

IC50 [1, 10]: 47 nM
Structure (SMILES): C[C@@]1(OC(=O)Oc2ccccc2)CC[C@@H]2C[C@H]1OO[C@@]2(C)CS(=O)(=O)c1ccccc1 [Compound 27a, (1R,4R,5R,8R)-4,8-dimethyl-8-phenoxycarbonyloxy-4-phenylsulfonylmethyl-2,3-dioxabicyclo[3.3.1]nonane]

IC50 [1, 10]: 14 nM
Structure (SMILES): COc1ccc(CO[C@]2(C)CC[C@@H]3C[C@H]2OO[C@@]3(C)CS(=O)(=O)c2ccccc2)cc1 [Compound 34a, (1R,4R,5R,8R)-4,8-dimethyl-8-(p-methoxybenzyloxy)-4-phenylsulfonylmethyl-2,3-dioxabicyclo[3.3.1]nonane]
ED50 [4]: 1.3 mg/kg | ED90 [4]: 2.3 mg/kg/day | ED50 [5]: 4.8 mg/kg | ED90 [5]: 8.3 mg/kg/day

IC50 [1, 10]: 140 nM
Structure (SMILES): CCOC(=O)C(=O)O[C@]1(C)CC[C@@H]2C[C@H]1OO[C@]2(C)CS(=O)(=O)c1ccccc1 [Compound 25b, (1R,4S,5R,8R)-8-ethoxyoxalyloxy-4,8-dimethyl-4-phenylsulfonylmethyl-2,3-dioxabicyclo [3.3.1]nonane]

IC50 [1, 11]: 490 nM
Structure (SMILES): CC1=CC[C@@H]2C[C@H]1OO[C@@]2(C)CS(=O)(=O)c1ccccc1 [Compound 37a, (1R,4R,5R)-4,8-dimethyl-4-phenylsulfonylmethyl-2,3-dioxabicyclo[3.3.1]non-7-ene]
